Experiment: Solution state photophysical studies (absorption, emission, lifetime) in DMSO
Assay type: physicochemical
Settings: in DMSO at RT; for λmax (abs.) / λmax (em.): 10 μM; for λmax (em.): under UV light (λexc=365 nm)
Experimental: For solution state photophysical studies (absorption, emission and lifetime) stock for all compounds (1 mM concentration) were prepared in DMSO solvent. For the measurement, the required volume was added from the stock solution in 1 mL solution to make it final concentration as 10 μM. For aggregation induced emission (AIE) measurement, different ratio of DCM-Hexane solvent mixture (0-99%) was prepared by adding required volume of DCM and Hexane, subsequently measurements were performed by maintaining 10 μM dye concentration in each 1 mL solution.
The AIE images were taken in 5 ml vials which were placed on a handled UV (excitation wavelength 365 nm) instrument. For the solid-state absorption and emission measurements, powder samples were prepared by dissolving compound and BaSO4 in DCM and then evaporated to dryness. Solution Spectra were measured in HORIBA Jobin Yvon Fluorolog using 1 cm path length quartz cuvette. To make the powder more homogenous, mixtures were grinded effectively for few minutes.

## O=S(=O)([O-])C(F)(F)F.c1ccc(-c2cccc3c4ccccc4cc(-c4ccccc4)[n+]23)cc1 [2a, 4,6-diphenylpyrido[2,1-a]isoquinolin-5-ium trifluoromethanesulfonate]
  Lifetime: 5.84 ns
  Rel. QY: 0.015
  Stokes shift: 116 nm
  λmax (abs.): 392 nm
  λmax (em.): 508 nm

## COc1ccc(-c2cccc3c4ccccc4cc(-c4cccc5ccccc45)[n+]23)cc1.O=S(=O)([O-])C(F)(F)F [2aa, 4-(4-methoxyphenyl)-6-(naphthalen-1-yl)pyrido[2,1-a]isoquinolin-5-ium trifluoromethanesulfonate]
  Lifetime: 4.09 ns
  Rel. QY: 0.062
  Stokes shift: 143 nm
  λmax (abs.): 397 nm
  λmax (em.): 540 nm

## COc1ccc(-c2cccc3c4ccccc4cc(-c4ccccc4)[n+]23)cc1.O=S(=O)([O-])C(F)(F)F [2f, 4-(4-methoxyphenyl)-6-phenylpyrido[2,1-a]isoquinolin-5-ium trifluoromethane sulfonate]
  Lifetime: 5.32 ns
  Rel. QY: 0.018
  Stokes shift: 136 nm
  λmax (abs.): 404 nm
  λmax (em.): 540 nm

## O=S(=O)([O-])C(F)(F)F.c1ccc(-c2cc3ccccc3c3cccc(-c4cc5ccccc5c5ccccc45)[n+]23)cc1 [2j, 4-(phenanthren-9-yl)-6-phenylpyrido[2,1-a]isoquinolin-5-ium trifluoromethane sulfonate]
  Lifetime: 5.19 ns
  Rel. QY: 0.220
  Stokes shift: 147 nm
  λmax (abs.): 397 nm
  λmax (em.): 544 nm

## COc1ccc(-c2cccc3c4cc(C)ccc4cc(-c4ccccc4)[n+]23)cc1.O=S(=O)([O-])C(F)(F)F [2m, 4-(4-methoxyphenyl)-10-methyl-6-phenylpyrido[2,1-a]isoquinolin-5-ium trifluoro methanesulfonate]
  Lifetime: 3.6 ns
  Rel. QY: 0.020
  Stokes shift: 131 nm
  λmax (abs.): 409 nm
  λmax (em.): 540 nm

## COc1ccc(-c2cccc3c4cc(-c5ccccc5)ccc4cc(-c4ccccc4)[n+]23)cc1.O=S(=O)([O-])C(F)(F)F [2o, 4-(4-methoxyphenyl)-6,10-diphenylpyrido[2,1-a]isoquinolin-5-ium trifluoro methanesulfonate]
  Lifetime: 3.72 ns
  Rel. QY: 0.036
  Stokes shift: 129 nm
  λmax (abs.): 417 nm
  λmax (em.): 546 nm

## COc1ccc(-c2cccc3c4cc(-c5cccc6ccccc56)ccc4cc(-c4ccccc4)[n+]23)cc1.O=S(=O)([O-])C(F)(F)F [2p, 4-(4-methoxyphenyl)-10-(naphthalen-1-yl)-6-phenylpyrido[2,1-a]isoquinolin-5-ium trifluoromethanesulfonate]
  Lifetime: 3.38 ns
  Rel. QY: 0.032
  Stokes shift: 140 nm
  λmax (abs.): 412 nm
  λmax (em.): 552 nm

## COc1ccc(-c2cccc3c4ccc(C)cc4cc(-c4ccccc4)[n+]23)cc1.O=S(=O)([O-])C(F)(F)F [2r, 4-(4-methoxyphenyl)-9-methyl-6-phenylpyrido[2,1-a]isoquinolin-5-ium trifluoro methanesulfonate]
  Lifetime: 5.93 ns
  Rel. QY: 0.017
  Stokes shift: 133 nm
  λmax (abs.): 405 nm
  λmax (em.): 538 nm

## COc1ccc(-c2cccc3c4cc(C)cc(C)c4cc(-c4ccccc4)[n+]23)cc1.O=S(=O)([O-])C(F)(F)F [2t, 4-(4-methoxyphenyl)-8.10-dimethyl-6-phenylpyrido[2,1-a]isoquinolin-5-ium trifluoro methanesulfonate]
  Lifetime: 4.49 ns
  Rel. QY: 0.024
  Stokes shift: 132 nm
  λmax (abs.): 410 nm
  λmax (em.): 542 nm

## COc1ccc(-c2cccc3c4cc(OC)cc(OC)c4cc(-c4ccccc4)[n+]23)cc1.O=S(=O)([O-])C(F)(F)F [2u, 8,10-dimethoxy-4-(4-methoxyphenyl)-6-phenylpyrido[2,1-a]isoquinolin-5-ium trifluoromethanesulfonate]
  Lifetime: 4.2 ns
  Rel. QY: 0.125
  Stokes shift: 172 nm
  λmax (abs.): 430 nm
  λmax (em.): 602 nm

## COc1ccc(-c2cccc3c4ccccc4cc(-c4cc(OC)cc(OC)c4)[n+]23)cc1.O=S(=O)([O-])C(F)(F)F [2y, 6-(3,5-dimethoxyphenyl)-4-(4-methoxyphenyl)pyrido[2,1-a]isoquinolin-5-ium trifluoromethanesulfonate]
  Lifetime: 5.72 ns
  Rel. QY: 0.006
  Stokes shift: 139 nm
  λmax (abs.): 401 nm
  λmax (em.): 540 nm

Reference: patent publication US20240400559A1, “SOLID STATE EMITTERS BASED ON PYRIDINIUM SCAFFOLDS” (Council of Scientific and Industrial Research, priority 2021, published 2024)
